Measurements published in patent US5173405A, “Use of arsenite to reversibly block steroid binding to glucocorticoid receptors in the presence of other steroid receptors” (priority 1990, dated 1992).

Tests used:
[1] = test system: steroid-free glucocorticoid receptors; assay: Reversal by thiols of arsenite inhibition of [3H]Dex binding to steroid-free receptors; details: receptors preincubated with 40 uM arsenite 30 min, then thiol 30 min
Procedure: Referring to FIG. 4, steroid-free receptors in pH 8.8 TAPS buffer containing 21 mM Na2 MoO4 were preincubated with 40 uM arsenite for 30 min and then adjusted to various concentrations of DTT or β-MERC by addition of 100× solutions of each thiol in pH 8.8 TAPS buffer. After a further 30 min preincubation, the binding activity of these receptors was assayed by incubating with [^3 H]Dex±excess [^1 H]Dex for 2.5 hr. The amount of specific binding (determined as described above for FIG. 1A) of [^3 H]Dex after DTT(o) and β-MERC preincubation was expressed as a percent of the untreated control.
(§1) The growth of HTC cells at 37° C. in spinner and monolayer cultures of Swim's S77 medium (GIBCO; Grand Island, N.Y.) supplemented with 5% fetal and 5% newborn bovine serum (both obtained from Biofluids; Rockville, Md.) and 0.03% glutamine are described in Thompson, 1979. HTC cell cytosol containing the steroid-free receptors was prepared, stored in liquid N2, and labelled as set forth in Reichman et al., Biochem., 23, 5376-5384, 1984; Simons et al., Biochem., 23, 6876-6882, 1984. […] The specifically bound [^3 H]Dex was determined by first adding a 10% dextran-coated charcoal solution (added volume=20% of reaction solution volume) to remove free steroid and then subtracting the nonspecific binding seen in the presence of excess [^1 H]Dex.

[2] = molecular target: T1, glucocorticoid receptors (HTC cell receptors) (Rattus norvegicus, UniProt P06536); assay: [3H]Dex binding to HTC cell cytosol receptors after preincubation with MMTS or arsenite; details: for inactivation of steroid-binding activity of glucocorticoid receptors: low concentrations of MMTS, very low concentrations of arsenite
T1 sequence (P06536 1-795): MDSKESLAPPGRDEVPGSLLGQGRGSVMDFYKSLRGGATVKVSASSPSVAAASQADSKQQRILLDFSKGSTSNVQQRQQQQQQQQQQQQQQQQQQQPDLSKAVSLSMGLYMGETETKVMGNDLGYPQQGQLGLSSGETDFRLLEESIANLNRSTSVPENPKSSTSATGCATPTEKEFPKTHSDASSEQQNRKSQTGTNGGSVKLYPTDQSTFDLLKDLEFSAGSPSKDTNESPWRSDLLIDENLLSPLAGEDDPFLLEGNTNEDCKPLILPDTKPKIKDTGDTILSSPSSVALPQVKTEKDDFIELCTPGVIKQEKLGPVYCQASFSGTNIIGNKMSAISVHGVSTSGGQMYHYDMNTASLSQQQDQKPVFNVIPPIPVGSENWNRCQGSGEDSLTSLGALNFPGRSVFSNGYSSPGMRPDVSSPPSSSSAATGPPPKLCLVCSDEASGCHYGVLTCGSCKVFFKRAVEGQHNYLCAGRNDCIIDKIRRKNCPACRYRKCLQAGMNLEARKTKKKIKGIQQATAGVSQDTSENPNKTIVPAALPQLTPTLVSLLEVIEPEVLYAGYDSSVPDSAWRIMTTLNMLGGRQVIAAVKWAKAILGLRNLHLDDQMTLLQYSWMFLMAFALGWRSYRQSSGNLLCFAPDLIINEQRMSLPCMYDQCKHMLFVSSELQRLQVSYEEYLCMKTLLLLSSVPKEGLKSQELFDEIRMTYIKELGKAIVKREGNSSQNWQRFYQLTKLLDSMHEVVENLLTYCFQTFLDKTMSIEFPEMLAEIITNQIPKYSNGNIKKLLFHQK
Procedure: Referring to FIG. 1A, duplicate samples of HTC cell (Thompson, E.B., Methods Enzymol., 58, 544-551 [1979]) cytosol solution were pretreated with various concentrations of MMTS in absolute EtOH (final concentration of ETOH=1%) for 0 hr (.smallcircle.), 0.5 hr, or 2.5 hr before the addition of [^3 H]Dex±[^1 H]Dex. After a further 2.5 hr incubation, the free steroid was removed by the addition of dextran-coatedcharcoal. The specific binding to receptors was determined as described by Miller and Simons, J. Biol. Chem., 263, 15217-15225, 1988) (see also section entitled "Cells and preparation and labelling of receptors" below) and plotted as percentage of the EtOH-pretreated control versus the concentration of MMTS. The data points shown are the average values derived from 1-5 experiments.
Referring to FIG. 1B, duplicate samples of HTC cell cytosol solution were treated with various concentrations of MMTS for 2.5 hr before determining the remaining steroid binding activity of the receptors as described above for FIG. 1A.
Referring to FIG. 3, steroid-free receptors containing 21 mM Na2 MoO4 were incubated with various concentrations of 100× (in pH 8.8 TAPS buffer) arsenite for 30 min. The binding activity of these receptors was then assayed by incubating with [^3 H]Dex±excess [^1 H]Dex for 2.5 hr. The amount of specific binding of [^3 H]Dex (determined as described above for FIG. 1A) after arsenite preincubation was expressed as a percent of the untreated control.
as §1, with “1979.” for “1979. HTC cell cytosol containing the steroid-free receptors was prepared, stored in liquid N2, and labelled as set forth in Reichman et al., Biochem., 23, 5376-5384, 1984; Simons et al., Biochem., 23, 6876-6882, 1984.”

[3] = test system: 16 kDa steroid-binding core fragment of HTC cell receptors; assay: [3H]Dex binding to trypsin-generated 16 kDa core fragment after preincubation with arsenite or MMTS; set-up: species or system rat; details: preincubation with arsenite 30 min or MMTS 2.5 hr
Procedure: Referring to FIG. 6, duplicate samples of steroid-free receptors in pH 8.8 TAPS buffer containing 21 mM Na2 MoO4 were digested with trypsin (14 μg/ml for 1 hr), to generate the 16 kDa core fragment of the receptor, followed by a 10-fold (wt/wt) excess of soybean trypsin inhibitor to block further digestion. The samples were then treated with various concentrations of arsenite (for 30 min) or MMTS (for 2.5 hr) before determining the remaining [^3 H]Dex binding as described above for FIG. 1A.
as §1

[4] = test system: human glucocorticoid receptors; assay: [3H]steroid binding of glucocorticoid receptors in MCF-7 cell cytosol after arsenite preincubation; details: arsenite between 100 and 500 μM
Procedure: (§2) Referring to FIG. 7, steroid-free receptors (glucocorticoid, estrogen, and progesterone receptors in MCF-7 cell [from NCI, NIH] cytosol in pH 7.5 HEPES buffer containing 21 mM Na2 MoO4) were treated with various concentrations of 100× (in pH 7.5 HEPES buffer) sodium arsenite for 30 min. The binding activity of these receptors was then assayed by incubating with [^3 H]steroid±[^1 H]steroid for 2.5 hr. The amount of specific binding of [^3 H]steroid (as described above for FIG. 1A) after arsenite preincubation was expressed as the percent of the untreated control for glucocorticoid estrogen (Δ), and progesterone (.smallcircle.) receptors.
(§3) MCF-7 cells (obtained from NIH) were grown as monolayer cultures in Richter's IMEM (NIH Media Unit, NIH) (supplemented with 10% fetal bovine serum [Biofluids] and 0.03% glutamine) in an atmosphere of 5% CO2 /95% air at 37° C. Crude receptor solutions were prepared by freeze-thaw lysis (in liquid N2) of cells washed in phosphate buffered saline (Reichman et al., 1984; Simons et al., 1984). The cell lysates were treated with either […] TAPS or pH 7.5 HEPES buffer (containing 20 mM Na2 MoO4) and centrifuged at 2500×g for 10 min or 100,000×g for 60 min. […]

[5] = test system: human estrogen and progesterone receptors (other receptors); assay: [3H]steroid binding of estrogen and progesterone receptors in MCF-7 cell cytosol after arsenite preincubation; details: arsenite between 100 and 500 μM
Procedure: as §2, §3

Compound: OCCS [β-MERC, β-mercaptoethanol]
- reversal of arsenite inhibition of steroid binding [1]: reversal of arsenite inhibition of steroid binding

Compound: CSS(C)(=O)=O [MMTS, methyl methanethiolsulfonate]
- inactivation of steroid-binding activity of glucocorticoid receptors [2]: specifically and reversibly inactivate all of the steroid-binding activity of glucocorticoid receptors
- preferred MMTS concentration for blocking rat glucocorticoid receptors ([2]; rat glucocorticoid receptors): approximately 300 μM
- inhibition of [3H]Dex binding to 16 kDa steroid-binding core fragment [3]: inhibition of [^3 H]Dex binding

Compound: O=[As]O [arsenite, sodium arsenite]
- inactivation of steroid-binding activity of glucocorticoid receptors [2]: specifically and reversibly inactivate all of the steroid-binding activity of glucocorticoid receptors
- inhibition of [3H]Dex binding to 16 kDa steroid-binding core fragment [3]: inhibition of [^3 H]Dex binding
- inhibition of glucocorticoid binding [4]: complete inhibition of glucocorticoid binding
- effect on other receptors [5]: little effect on other receptors

Compound: O[C@H](CS)[C@H](O)CS (racemic) [DTT, dithiothreitol]
- reversal of arsenite inhibition of steroid binding [1]: reversal of arsenite inhibition of steroid binding
